Consider three molecules from publication PMC12670396, “Crizotinib- or Ceritinib-Conjugated Platinum(IV) Prodrugs As Potent Multiaction Agents Inducing Antiproliferative Effects in 2D and 3D Cancer Cell Models” (Journal of Medicinal Chemistry, 2025).

Each structure is given as a SMILES string.

In one assay the test system is CT26 cells. Put plainly: Phagocytosis of treated CT26 cells by J774.A1 macrophages. In kind it is cell-based, murine. The following applies: CT26 treated at IC50 for 24 h, cocultivated 4 h, J774.A1:CT26 1:2. As for the experimental part:
Then, the cells in the samples were stained with CellTracker (red CMTPX; Thermo Fisher Scientific). At the same time, J774.A1 macrophages were stained with CellTracker (green CMFDA; ThermoFisher Scientific). […] Following the coincubation, the cells were harvested and analyzed with flow cytometry (BD FACS Verse). Total cell count was normalized to 3 × 10^4 macrophages. The data were analyzed with FCS Express 7 (DeNovo software; Glendale, CA).

In the next assay the test system is CT26 and NCI-H2228 cells. Put plainly: Extracellular HMGB1 (ELISA). It is filed as cell-based. To be noted: IC50 concentrations, 24 h. As for the experimental part: The amount of HMGB1 in the medium was determined using an enzyme-linked immunosorbent assay (ELISA).
CT26 and NCI-H2228 cells were seeded in 48-well plates at a density of 5 × 10^4 cells/well and grown overnight. […] Aliquots of the supernatants were then withdrawn and processed using the HMGB1 Express ELISA kit (TECAN) according to the manufacturer’s instructions. The final absorbance, proportional to the HMGB1 amount, was read at 420 nm using a multimode SPARK reader (TECAN).

For the molecule `CC(Oc1cc(-c2cnn(C3CCN(C(=O)[O][Pt]([Cl])([Cl])[O]C(=O)CCCc4ccccc4)CC3)c2)cnc1N)c1c(Cl)ccc(F)c1Cl.N.N` (stereo not drawn) [compound 3, ctc-[Pt(NH3)2(crizotinib)(PhB)Cl2]], the “double-stained (phagocytotic) population” value in the assay on CT26 cells was “significantly increased”. Consider `N.N.[Cl][Pt][Cl]` [cisPt, cisplatin, reference compound], for which the “HMGB1 externalization relative to nontreated control” value with CT26 and NCI-H2228 cells turned out to be 2 fold. For `Cc1cc(Nc2ncc(Cl)c(Nc3ccccc3S(=O)(=O)C(C)C)n2)c(OC(C)C)cc1C1CCN(C(=O)[O][Pt]([Cl])([Cl])[O]C(=O)CCCc2ccccc2)CC1.N.N` [compound 7, ctc-[Pt(NH3)2(ceritinib)(PhB)Cl2]], in the assay on CT26 cells, the “double-stained (phagocytotic) population” value was “significantly increased”.
